From patent US12049518B2, “Pharmacokinetics and cholecystokinin-2 receptor (CCK2R) targeting for diagnosis and therapy” (Medizinische Universitat Innsbruck, priority 2017, dated 2024) come the findings set out here.

Molecules are shown by their SMILES. Where a SMILES comes first, the peptide text is derived from it. [ ]: non-standard residue; d: D form. The star is where a group is joined. DOTA = O=C(O)CN1CCN(CC(=O)O)CCN(CC(=O)*)CCN(CC(=O)O)CC1; 1Nal = N[C@@H](Cc1cccc2ccccc12)C(=O)O; NMeNle = CCCC[C@H](NC)C(=O)O

One data set deals with serum proteins. The data set can be described thus: protein binding to serum proteins (Sephadex G-50 size-exclusion chromatography). The conditions noted are these: 37° C.; for fraction unbound at 4 h, 500 pmol/mL / fraction unbound at 24 h, 500 pmol/mL: fresh human serum; for fraction unbound at 4 h, 500 pmol/mL: read-out: Percentage of radioligand bound to serum proteins after 4 h incubation (converted); for fraction unbound at 24 h, 500 pmol/mL: read-out: Percentage of radioligand bound to serum proteins after 24 h incubation (converted); for Percentage of radioligand bound to serum proteins after 24 h incubation: human serum. The class given is in vitro ADME. As to the method:
Additionally, protein binding to serum proteins was investigated. For this purpose the ^111In-labelled peptidomimetics were incubated in duplicates in fresh human serum at 37° C. (500 pmol/mL) and analyzed after 4 and 24 h by Sephadex G-50 size-exclusion chromatography (GE Healthcare Illustra, Little Chalfont, UK). The percentage of protein binding was determined by measuring the column and the eluate in a 2480 Wizard 2 automatic gamma-counter (Perkin Elmer Life Sciences and Analytical Sciences, Turku, F).
(In general: Size exclusion chromatography separates by hydrodynamic size, large species first.)

Data set [1] can be described thus: stability in vivo (radio-HPLC of blood sample). To be noted: BALB/c mice, i.v. As to the method:
To further characterise the stability of the radiolabelled peptidomimetics in vivo, metabolic studies were carried out in 5-6-week-old female BALB/c mice (Charles River, Sulzfeld, Germany) injected intravenously with the ^111In- and […] peptidomimetics. All animal experiments were conducted in compliance with the Austrian animal protection laws and with the approval of the Austrian Ministry of Science. To allow monitoring of the metabolites by radio-HPLC, mice were injected with a higher amount of radioactivity (5-15 MBq ^111In and 20-40 MBq ^177Lu, corresponding to 1-2 nmol total peptide) through a lateral tail vein and euthanized by cervical dislocation 10 or 30 min post injection (p.i.). A sample of blood was collected and the degradation was assessed by radio-HPLC.

`CSCC[C@H](NC(=O)[C@H](Cc1c[nH]c2ccccc12)NC(=O)CNC(=O)[C@H](Cc1ccc(O)cc1)NC(=O)[C@H](C)NC(=O)[C@@H](CCC(=O)O)NC(=O)CN1CCN(CC(=O)O)CCN(CC(=O)O)CCN(CC(=O)O)CC1)C(=O)N[C@@H](CC(=O)O)C(=O)N[C@@H](Cc1cccc2ccccc12)C(N)=O` [^111In-DOTA-MGS1, ^111In-DOTA-DGlu-Ala-Tyr-Gly-Trp-Met-Asp-1Nal-NH2, metal not drawn, reference compound] ({DOTA}-[dE]AYGWMD[1Nal]-NH2): in the data set on serum proteins, the fraction unbound at 4 h, 500 pmol/mL was 0.8 and the fraction unbound at 24 h, 500 pmol/mL was 0.712.

On to `CCCC[C@@H](C(=O)N[C@@H](CC(=O)O)C(=O)N(C)[C@@H](Cc1ccccc1)C(N)=O)N(C)C(=O)[C@H](Cc1c[nH]c2ccccc12)NC(=O)CNC(=O)[C@H](Cc1ccc(O)cc1)NC(=O)[C@H](C)NC(=O)[C@@H](CCC(=O)O)NC(=O)CN1CCN(CC(=O)O)CCN(CC(=O)O)CCN(CC(=O)O)CC1` [^111In-DOTA-MGS4, ^111In-DOTA-DGlu-Ala-Tyr-Gly-Trp-(N-Me)Nle-Asp-(N-Me)Phe-NH2, metal not drawn, reference compound], for which, in the data set with serum proteins, the fraction unbound at 4 h, 500 pmol/mL was 0.911; the fraction unbound at 24 h, 500 pmol/mL was 0.881; the “Percentage of radioligand bound to serum proteins after 24 h incubation” value (“Percentage of radioligand bound” for short) is given as roughly 12%.

On to `CCCC[C@@H](C(=O)N[C@@H](CC(=O)O)C(=O)N[C@@H](Cc1cccc2ccccc12)C(N)=O)N(C)C(=O)[C@H](Cc1c[nH]c2ccccc12)NC(=O)CNC(=O)[C@H](Cc1ccc(O)cc1)NC(=O)[C@H](C)NC(=O)[C@@H](CCC(=O)O)NC(=O)CN1CCN(CC(=O)O)CCN(CC(=O)O)CCN(CC(=O)O)CC1` [^111In-DOTA-MGS5, metal not drawn], for which, in the data set with serum proteins, the fraction unbound at 4 h, 500 pmol/mL is 0.59 and the fraction unbound at 24 h, 500 pmol/mL was 0.557. Moreover, the “intact radioligand present in the blood at 10 min p.i.” value in data set [1] turned out to be 82.7±3.3%.

Regarding `CCCC[C@@H](C(=O)N[C@@H](CC(=O)O)C(=O)N[C@@H](Cc1ccc2ccccc2c1)C(N)=O)N(C)C(=O)[C@H](Cc1c[nH]c2ccccc12)NC(=O)CNC(=O)[C@H](Cc1ccc(O)cc1)NC(=O)[C@H](C)NC(=O)[C@@H](CCC(=O)O)NC(=O)CN1CCN(CC(=O)O)CCN(CC(=O)O)CCN(CC(=O)O)CC1` [^111In-DOTA-MGS5-2, metal not drawn], in the data set on serum proteins, the fraction unbound at 4 h, 500 pmol/mL was 0.683; the fraction unbound at 24 h, 500 pmol/mL was 0.654; the “Percentage of radioligand bound” value is recorded as roughly 30%. Besides, the “intact radioligand present in the blood at 10 min p.i.” value in data set [1] stood at 88.4±0.4%.

As for `CCCC[C@@H](C(=O)N[C@@H](CC(=O)O)C(=O)N[C@@H](Cc1cccc2ccccc12)C(N)=O)N(C)C(=O)[C@H](Cc1c[nH]c2ccccc12)NC(=O)CNC(=O)[C@H](Cc1ccc(O)cc1)NC(=O)[C@@H]1CCCN1C(=O)[C@@H](CCC(=O)O)NC(=O)CN1CCN(CC(=O)O)CCN(CC(=O)O)CCN(CC(=O)O)CC1` [^111In-DOTA-MGS8, metal not drawn] ({DOTA}-[dE]PYGW[NMeNle]D[1Nal]-NH2), the “intact radioligand present in the blood at 10 min p.i.” value in data set [1] is 80.0±5.2%.

On to `CCCC[C@@H](C(=O)N[C@@H](CC(=O)O)C(=O)N[C@@H](Cc1cccc2ccccc12)C(N)=O)N(C)C(=O)[C@H](Cc1c[nH]c2ccccc12)NC(=O)CNC(=O)[C@@H]1CCCN1C(=O)[C@H](Cc1ccc(O)cc1)NC(=O)[C@@H](CCC(=O)O)NC(=O)CN1CCN(CC(=O)O)CCN(CC(=O)O)CCN(CC(=O)O)CC1` [^111In-DOTA-MGS10, metal not drawn] ({DOTA}-[dE]YPGW[NMeNle]D[1Nal]-NH2), for which the fraction unbound at 4 h, 500 pmol/mL in the data set with serum proteins was 0.433. Besides, the “intact radioligand present in the blood at 10 min p.i.” value in data set [1] is given as 82.3±1.8%.

Regarding `CCCC[C@@H](C(=O)N[C@@H](CC(=O)O)C(=O)N(C)[C@@H](Cc1cccc2ccccc12)C(N)=O)N(C)C(=O)[C@H](Cc1c[nH]c2ccccc12)NC(=O)CNC(=O)[C@H](Cc1ccc(O)cc1)NC(=O)[C@H](C)NC(=O)[C@@H](CCC(=O)O)NC(=O)CN1CCN(CC(=O)O)CCN(CC(=O)O)CCN(CC(=O)O)CC1` [^111In-DOTA-MGS11, metal not drawn], in the data set with serum proteins, the fraction unbound at 4 h, 500 pmol/mL is 0.681; the fraction unbound at 24 h, 500 pmol/mL was 0.602; the “Percentage of radioligand bound” value is listed as roughly 30%. The “intact radioligand present in the blood at 10 min p.i.” value in data set [1] is 98.4±0.1%.

Regarding `CCCC[C@@H](C(=O)N[C@@H](CC(=O)O)C(=O)N[C@@H](Cc1cccc2ccccc12)C(N)=O)N(C)C(=O)[C@H](Cc1c[nH]c2ccccc12)NC(=O)[C@@H]1CCCN1C(=O)[C@H](Cc1ccc(O)cc1)NC(=O)[C@H](C)NC(=O)[C@@H](CCC(=O)O)NC(=O)CN1CCN(CC(=O)O)CCN(CC(=O)O)CCN(CC(=O)O)CC1` [^111In-DOTA-MGS12, metal not drawn] ({DOTA}-[dE]AYPW[NMeNle]D[1Nal]-NH2), the fraction unbound at 24 h, 500 pmol/mL in the data set on serum proteins is 0.541.

In the case of `CCCC[C@@H](C(=O)N[C@@H](CC(=O)O)C(=O)N[C@@H](Cc1cccc2ccccc12)C(N)=O)N(C)C(=O)[C@H](Cc1c[nH]c2ccccc12)NC(=O)CNC(=O)[C@H](Cc1ccc(O)cc1)NC(=O)[C@H](C)NC(=O)[C@@H](CCC(=O)O)NC(=O)CN1CCN(CC(=O)O)CCN(CC(=O)O)CCN(CC(=O)O)CC1` [^177Lu-DOTA-MGS5, metal not drawn], in data set [1], the “intact radioligand present in the blood at 10 min p.i.” value was found to be 85.9% and the “intact radioligand present in the blood at 30 min p.i.” value is on record as 77.0%.

For `CCCC[C@@H](C(=O)N[C@@H](CC(=O)O)C(=O)N[C@@H](Cc1cccc2ccccc12)C(N)=O)N(C)C(=O)[C@H](Cc1c[nH]c2ccccc12)NC(=O)CNC(=O)[C@H](Cc1ccc(O)cc1)NC(=O)[C@@H]1CCCN1C(=O)[C@@H](CCC(=O)O)NC(=O)CN1CCN(CC(=O)O)CCN(CC(=O)O)CCN(CC(=O)O)CC1` [^177Lu-DOTA-MGS8, metal not drawn] ({DOTA}-[dE]PYGW[NMeNle]D[1Nal]-NH2), in data set [1], the “intact radioligand present in the blood at 10 min p.i.” value was found to be 80.5% and the “intact radioligand present in the blood at 30 min p.i.” value amounted to 56.8%.

`CSCC[C@H](NC(=O)[C@H](Cc1c[nH]c2ccccc12)NC(=O)CNC(=O)[C@H](Cc1ccc(O)cc1)NC(=O)[C@H](C)NC(=O)[C@@H](CCC(=O)O)NC(=O)[C@@H](CCC(=O)O)NC(=O)[C@@H](CCC(=O)O)NC(=O)[C@@H](CCC(=O)O)NC(=O)[C@@H](CCC(=O)O)NC(=O)[C@@H](CCC(=O)O)NC(=O)CN1CCN(CC(=O)O)CCN(CC(=O)O)CCN(CC(=O)O)CC1)C(=O)N[C@@H](CC(=O)O)C(=O)N[C@@H](Cc1ccccc1)C(N)=O` [^177Lu-PP-F11, metal not drawn, reference compound]: the “intact radioligand present in the blood at 30 min p.i.” value in data set [1] is given as 5.5%.

Turning to `CCCC[C@H](NC(=O)[C@H](Cc1c[nH]c2ccccc12)NC(=O)CNC(=O)[C@H](Cc1ccc(O)cc1)NC(=O)[C@H](C)NC(=O)[C@@H](CCC(=O)O)NC(=O)[C@@H](CCC(=O)O)NC(=O)[C@@H](CCC(=O)O)NC(=O)[C@@H](CCC(=O)O)NC(=O)[C@@H](CCC(=O)O)NC(=O)[C@@H](CCC(=O)O)NC(=O)CN1CCN(CC(=O)O)CCN(CC(=O)O)CCN(CC(=O)O)CC1)C(=O)N[C@@H](CC(=O)O)C(=O)N[C@@H](Cc1ccccc1)C(N)=O` [^177Lu-PP-F11N, metal not drawn, reference compound], in data set [1], the “intact radioligand present in the blood at 10 min p.i.” value is listed as 22.3% and the “intact radioligand present in the blood at 30 min p.i.” value was determined as 12.7%.
